# Measurements taken from patent US20070191374A1, “Substituted cinnolin-4-ylamines” (Neurogen Coroperation, priority 2004, published 2007).
# What was measured:
# human capsaicin receptor = target: T1, human capsaicin receptor (Homo sapiens, UniProt Q8NER1); experiment: Calcium mobilization assay; assay type: cell-based; settings: cells expressing human capsaicin receptor, FLUO-3 fluorescence; positive control in agonist assay; read-out: approximate EC90 concentration
# T1 construct: pBK-CMV expression construct encoding the full length human capsaicin receptor; expressed in transfected cells
# Experimental: This Example illustrates representative calcium mobilization assays for use in evaluating test compounds for agonist and antagonist activity.
# The culture medium is emptied from the 96 well plates and FLUO-3 AM calcium sensitive dye (Molecular Probes, Eugene, Oreg.) is added to each well (dye solution: 1 mg FLUO-3 AM, 440 μL DMSO and 440 μl 20% pluronic acid in DMSO, diluted 1:250 in Krebs-Ringer HEPES (KRH) buffer (25 mM HEPES, 5 mM KCl, 0.96 mM NaH2PO4, 1 mM MgSO4, 2 mM CaCl2, 5 mM glucose, 1 mM probenecid, pH 7.4), 50 μl diluted solution per well). Plates are covered with aluminum foil and incubated at 37° C. for 1-2 hours in an environment containing 5% CO2. […]
# To measure the ability of a test compound to agonize or antagonize a calcium mobilization response in cells expressing capsaicin receptors to capsaicin or other vanilloid agonist, the EC50 of the agonist capsaicin is first determined. […] Capsaicin-induced calcium mobilization is monitored using either FLUOROSKAN ASCENT (Labsystems; Franklin, Mass.) or FLIPR (fluorometric imaging plate reader system; Molecular Devices, Sunnyvale, Calif.) instruments. […] In this equation, y is the maximum fluorescence signal, x is the concentration of the agonist or antagonist (in this case, capsaicin), a is the Emax, b corresponds to the EC50 value and c is the Hill coefficient. […]
# VR = VR (Homo sapiens, UniProt Q8NER1); settings: typical value, background section; read-out: K; value (binds to VR); cited from earlier work
# Sequence of VR (Q8NER1 whole entry): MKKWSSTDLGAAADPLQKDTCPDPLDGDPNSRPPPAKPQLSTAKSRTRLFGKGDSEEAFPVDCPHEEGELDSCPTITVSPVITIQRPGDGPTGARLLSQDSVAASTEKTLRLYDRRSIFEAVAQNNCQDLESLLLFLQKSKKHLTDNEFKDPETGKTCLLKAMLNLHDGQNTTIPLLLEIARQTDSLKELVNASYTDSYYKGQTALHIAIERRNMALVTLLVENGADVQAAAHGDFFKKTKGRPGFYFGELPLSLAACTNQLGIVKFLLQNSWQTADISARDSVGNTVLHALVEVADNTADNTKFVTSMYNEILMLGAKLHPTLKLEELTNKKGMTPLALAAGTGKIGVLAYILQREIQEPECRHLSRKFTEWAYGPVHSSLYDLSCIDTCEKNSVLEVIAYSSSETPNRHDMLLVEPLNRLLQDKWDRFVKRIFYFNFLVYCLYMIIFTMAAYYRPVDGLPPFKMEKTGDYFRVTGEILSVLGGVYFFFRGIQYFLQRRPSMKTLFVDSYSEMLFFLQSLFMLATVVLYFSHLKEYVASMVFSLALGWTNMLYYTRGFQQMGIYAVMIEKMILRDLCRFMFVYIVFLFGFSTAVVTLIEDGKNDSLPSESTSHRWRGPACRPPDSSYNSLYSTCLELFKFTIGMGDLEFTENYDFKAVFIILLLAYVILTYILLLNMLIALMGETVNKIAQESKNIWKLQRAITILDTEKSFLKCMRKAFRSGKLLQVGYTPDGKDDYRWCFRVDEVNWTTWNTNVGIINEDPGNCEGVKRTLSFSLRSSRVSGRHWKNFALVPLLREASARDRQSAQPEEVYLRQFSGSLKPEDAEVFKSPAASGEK
# T1 sequence (Q8NER1 whole entry): as above
EC90 (human capsaicin receptor) [nM],Compound,Ki (VR) [nM]
~100,COc1cc(CNC(=O)CCCC/C=C/C(C)C)ccc1O [capsaicin],
,Cl.Cl.Cl.Cl.Cl.Cl.N.N.N.N.N.N.N.N.N.N.N.N.N.N.[O-2].[O-2].[Ru+3].[Ru+3].[Ru+4] [ruthenium red],≥ 140000
